Assay results taken from patent publication US20240344145A1, “PHARMACOGENOMICS SCORE TO MAKE DECISIONS ON THERAPY AUGMENTATION IN AML” (University of Florida Research Foundation, Incorporated, priority 2021, published 2024).

Tested on: ara-C metabolic pathway genes
Assay: Association of ara-C pathway SNP genotypes with MRD1, EFS and OS in AML02 (logistic regression and Cox models; also within LDAC and HDAC arms)
Parameters: species or system human
Settings: within arm of AML02
Text: Genomic DNA from patients enrolled in the multi-site St. Jude AML02 trial was genotyped for 155 SNPs in 16 genes of relevance to ara-C pharmacology using sequenom iPlex platform that uses MALDI-TOF based chemistry at University of Minnesota, Biomedical Genomics Center. SNPs were selected based on previously reported studies. For SNPs lacking literature on genetic variation, SNPs were selected to capture LD blocks (European and African ancestry) on a gene. Of 155 SNPs, 1 SNP was excluded due to low call rate (<90%), 47 SNPs were excluded due to minimum allele frequency of less than 5%, 11 SNPs were excluded due to high LD (r^2>0.9) with other SNPs; two SNPs were excluded because of deviation from Hardy-Weinberg equilibrium. Genotype for the COG-AAML0531 cohort for the selected SNPs was obtained using sequenom platform or TaqMan genotyping assays, and for a few SNPs was extracted from the data available on Illumina 2.5 Omni array. Genotype calls from multiple platforms were confirmed across multiple samples randomly collected from the cohort.
SNP genotype groups in three different modes of inheritance (additive, dominant, and recessive) were tested for association with MRD1 using logistic regression models. Odds ratio (OR) and 95% confidence interval (CI) were calculated for each test. SNPs with association P-value<0.05 were considered significant. Cox-proportional hazard models were used to evaluate association of genotype groups with EFS or OS. Hazard ratio (HR) and 95% CI were calculated for each test. p-value<0.05 was considered statistically significant. Given initial risk group assignments are well-established prognostic factors associated with outcome, outcome association analysis of SNPs with and without adjusting for risk group was also performed to identify SNPs that are associated with outcome independent of risk group.
SNPs with p<0.15 in risk-adjusted univariate evaluation with clinical endpoints (MRD1, EFS, and OS) were tested for all possible combinations with a maximum of three SNPs per model in multivariable logistic regression models for association with MRD1 and Cox-proportional hazard models for association with EFS and OS. Analysis for up to 3 SNP combinations was restricted due to computational challenges as increasing the maximum number of SNPs per model drastically increases the number of models as 1000 permutations were run for each model. Models were ordered according to their Bayesian Information Criterion (BIC) and weight in favor of each model. One thousand permutation tests were performed for each model to determine statistical significance. The six unique SNPs from the most significant models for EFS and MRD1 were included in the development of the ACS10 score as described in the results section.
The multicenter AML02 clinical trial randomly assigned subjects to receive low dose ara-C (LDAC: 100 mg/m^2; n=91 patients) or high dose ara-C(HDAC: 3 g/m^2; n=75 patients) in combination with daunorubicin and etoposide as the first course of chemotherapy as described above in patient cohort section. Thus, the association of SNPs with outcome within each arm separately was also explored (Table 5).

[1] = rs4742 (DCTD, WT T, VAR C), MOI R
[2] = rs5841 (NME4, WT C, VAR T), MOI D
[3] = rs324148 (SLC29A1, WT C, VAR T), MOI A
[4] = rs407983 (NME4, WT G, VAR C), MOI A
[5] = rs507964 (SLC29A1, WT C, VAR A), MOI R
[6] = rs580032 (CDA, WT T, VAR G), MOI D
[7] = rs602950 (CDA, WT T, VAR C), MOI A
[8] = rs747199 (SLC29A1, WT C, VAR G), MOI D
[9] = rs818196 (CDA, WT G, VAR C), MOI D
[10] = rs1048977 (CDA, WT C, VAR T), MOI D
[11] = rs1138729 (RRM2, WT A, VAR G), MOI D
[12] = rs2072671 (CDA, WT A, VAR C), MOI A
[13] = rs2396243 (SLC29A1, WT G, VAR A), MOI D
[14] = rs3088062 (CMPK1, WT T, VAR C), MOI A
[15] = rs3743162 (SLC28A1, WT C, VAR T), MOI D
[16] = rs3829540 (NME3, WT G, VAR A), MOI D
[17] = rs3925058 (CMPK1, WT T, VAR C), MOI D
[18] = rs4247411 (SLC28A1, WT C, VAR T), MOI D
[19] = rs4271567 (SLC28A1, WT T, VAR A), MOI R
[20] = rs4643786 (DCK, WT T, VAR C), MOI R

Nc1ccn([C@@H]2O[C@H](CO)[C@@H](O)[C@@H]2O)c(=O)n1 [LDAC, cytarabine]
EFS HR (95% CI) [1]: 1.49 (0.93-2.4) | MRD1 OR (95% CI) [1]: 1.19 (0.57-2.46) | OS HR (95% CI) [1]: 1.96 (1.2-3.21) | EFS HR (95% CI) [2]: 0.94 (0.68-1.31) | MRD1 OR (95% CI) [2]: 0.7 (0.45-1.08) | OS HR (95% CI) [2]: 0.86 (0.58-1.27) | EFS HR (95% CI) [3]: 1.35 (0.85-2.13) | MRD1 OR (95% CI) [3]: 0.37 (0.17-0.78) | OS HR (95% CI) [3]: 1.14 (0.64-2.04) | EFS HR (95% CI) [4]: 1.36 (0.88-2.09) | MRD1 OR (95% CI) [4]: 0.92 (0.53-1.59) | OS HR (95% CI) [4]: 1.73 (1-2.98) | EFS HR (95% CI) [5]: 1.54 (1.04-2.29) | MRD1 OR (95% CI) [5]: 1.41 (0.76-2.62) | OS HR (95% CI) [5]: 1.1 (0.64-1.88) | EFS HR (95% CI) [6]: 0.86 (0.51-1.44) | MRD1 OR (95% CI) [6]: 1.16 (0.63-2.13) | OS HR (95% CI) [6]: 1.12 (0.65-1.9) | EFS HR (95% CI) [7]: 0.56 (0.33-0.96) | MRD1 OR (95% CI) [7]: 0.57 (0.3-1.08) | OS HR (95% CI) [7]: 0.68 (0.36-1.26) | EFS HR (95% CI) [8]: 0.88 (0.61-1.28) | MRD1 OR (95% CI) [8]: 1.18 (0.75-1.88) | OS HR (95% CI) [8]: 0.55 (0.3-1) | EFS HR (95% CI) [9]: 1.18 (0.85-1.64) | MRD1 OR (95% CI) [9]: 1.28 (0.82-2) | OS HR (95% CI) [9]: 1.09 (0.73-1.62) | EFS HR (95% CI) [10]: 1.48 (1.06-2.08) | MRD1 OR (95% CI) [10]: 1.21 (0.79-1.85) | OS HR (95% CI) [10]: 1.14 (0.77-1.69) | EFS HR (95% CI) [11]: 1.55 (1.11-2.18) | MRD1 OR (95% CI) [11]: 1.19 (0.73-1.94) | OS HR (95% CI) [11]: 1.41 (0.93-2.14) | EFS HR (95% CI) [12]: 0.58 (0.35-0.95) | MRD1 OR (95% CI) [12]: 0.57 (0.31-1.04) | OS HR (95% CI) [12]: 0.68 (0.38-1.23) | EFS HR (95% CI) [13]: 1.56 (1.12-2.16) | MRD1 OR (95% CI) [13]: 0.92 (0.59-1.43) | OS HR (95% CI) [13]: 1.59 (1.07-2.36) | EFS HR (95% CI) [14]: 1.66 (0.99-2.8) | MRD1 OR (95% CI) [14]: 2.37 (1.06-5.28) | OS HR (95% CI) [14]: 1.63 (0.89-3.01) | EFS HR (95% CI) [15]: 0.82 (0.56-1.19) | MRD1 OR (95% CI) [15]: 0.77 (0.48-1.23) | OS HR (95% CI) [15]: 1.07 (0.71-1.64) | EFS HR (95% CI) [16]: 1.23 (0.89-1.71) | MRD1 OR (95% CI) [16]: 1.15 (0.73-1.8) | OS HR (95% CI) [16]: 1.22 (0.82-1.82) | EFS HR (95% CI) [17]: 0.7 (0.51-0.97) | MRD1 OR (95% CI) [17]: 0.6 (0.38-0.95) | OS HR (95% CI) [17]: 0.76 (0.51-1.13) | EFS HR (95% CI) [18]: 1.05 (0.73-1.51) | MRD1 OR (95% CI) [18]: 0.94 (0.59-1.51) | OS HR (95% CI) [18]: 1.03 (0.67-1.59) | EFS HR (95% CI) [19]: 1 (0.69-1.46) | MRD1 OR (95% CI) [19]: 0.76 (0.46-1.28) | OS HR (95% CI) [19]: 1.12 (0.72-1.74) | EFS HR (95% CI) [20]: 2.15 (1.28-3.64) | MRD1 OR (95% CI) [20]: 2.34 (0.76-7.15) | OS HR (95% CI) [20]: 1.7 (0.92-3.11)
